US20120277209A1, “PYRAZINE COMPOUNDS AS PHOSPHODIESTERASE 10 INHIBITORS” (Amgen Inc., priority 2009, published 2012)

Target: PDE10 (UniProt Q9Y233)
Assay: PDE10 enzyme inhibition, IMAP TR-FRET assay (MPDE10A7 Enzyme Activity and Inhibition)
Format: biochemical
Details: PDE10 enzyme inhibition; average IC50 data for each compound; read-out: Average IC50
Outline: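 IMAP TR-FRET read-out of PDE10 hydrolysis of fluorescein-cAMP or -cGMP (60 min, room temperature), after a 30 min compound-enzyme preincubation. Enzyme source was PDE10A or tissue homogenate. Averaged IC50s are reported as five range classes.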

Row | IC50 [nM] | SMILES
1 | 24.6 | O=C(c1ccc(Oc2nccnc2C(=O)NCCc2ccc(C(F)(F)F)cc2)cc1)c1nc2ccccc2[nH]1 [drawing 807]
2 | 1580 | O=C(c1ccc(Oc2nccnc2Cl)cc1)c1nc2ccc(F)cc2[nH]1 [drawing 813]
3 | 65.5 | O=C(c1ccc(Oc2nccnc2C(=O)NCCO)cc1)c1nc2ccccc2[nH]1 [drawing 817]
4 | 14.4 | c1ccc2sc(Nc3ccc(Oc4nccnc4-c4cccc5ncccc45)cc3)nc2c1 [drawing 821]
5 | 0.575 | O=C(c1ccc(Oc2nccnc2C(=O)NC2(Cc3ccccc3)CC2)cc1)c1nc2ccccc2[nH]1 [drawing 822]
6 | 10.4 | c1cncc(-c2nccnc2Oc2ccc(Nc3nc4ccccc4s3)cc2)c1 [drawing 823]
7 | 751 | Fc1cccc2nc(Nc3ccc(Oc4nccnc4Cl)cc3)sc12 [drawing 826]
8 | 4.47 | O=C(c1ccc(Oc2nccnc2C(=O)NCCc2ccccc2)cc1)c1nc2ccccc2[nH]1 [drawing 827]
9 | 1.76 | N#C[C@@H]1CCN(c2nccnc2Oc2ccc(C(=O)c3nc4ccccc4[nH]3)cc2)C1 [drawing 828]
10 | 1.32 | N#C[C@H]1CCN(c2nccnc2Oc2ccc(C(=O)c3nc4ccccc4[nH]3)cc2)C1 [drawing 829]
11 | 10.8 | CCOC(=O)[C@@H]1CCCN(c2nccnc2Oc2ccc(C(=O)c3nc4ccccc4[nH]3)cc2)C1 [drawing 830]
12 | 0.843 | CCOC(=O)[C@H]1CCCN(c2nccnc2Oc2ccc(C(=O)c3nc4ccccc4[nH]3)cc2)C1 [drawing 831]
13 | > 30000 | Fc1ccc2sc(Nc3ccc(Oc4nccnc4Cl)cc3)nc2c1 [drawing 832]
14 | 538 | Fc1ccc2nc(Nc3ccc(Oc4nccnc4Cl)cc3)sc2c1 [drawing 833]
15 | 3.05 | C[C@@H]1CN(c2nccnc2Oc2ccc(Nc3nc4ccccc4s3)cc2)CC(=O)N1 [drawing 834]
16 | 17.1 | C[C@H]1CN(c2nccnc2Oc2ccc(Nc3nc4ccccc4s3)cc2)CC(=O)N1 [drawing 835]
17 | 614 | Fc1cc(Oc2nccnc2Cl)ccc1Nc1nc2ccccc2s1 [drawing 836]
18 | 4.21 | COC(=O)[C@H]1CCN(c2nccnc2Oc2ccc(C(=O)c3nc4ccccc4[nH]3)cc2)C1 [drawing 837]
19 | 1.35 | COC(=O)[C@@H]1CCN(c2nccnc2Oc2ccc(C(=O)c3nc4ccccc4[nH]3)cc2)C1 [drawing 838]
20 | 43.6 | COc1nccnc1Oc1ccc(C(=O)c2nc3ccccc3[nH]2)cc1 [drawing 843]
21 | 56.6 | CC(C)Oc1nccnc1Oc1ccc(C(=O)c2nc3ccccc3[nH]2)cc1 [drawing 844]

Row | IC50 [nM] | SMILES
22 | 26.2 | CC(C)COc1nccnc1Oc1ccc(C(=O)c2nc3ccccc3[nH]2)cc1 [drawing 845]
23 | 164 | O=C(c1ccc(Oc2nccnc2OCC2CC2)cc1)c1nc2ccccc2[nH]1 [drawing 846]
24 | 187 | O=C(c1ccc(Oc2nccnc2OCC(F)(F)F)cc1)c1nc2ccccc2[nH]1 [drawing 847]
25 | 29.1 | COCCOc1nccnc1Oc1ccc(C(=O)c2nc3ccccc3[nH]2)cc1 [drawing 848]
26 | 1710 | O=C(c1ccc(Oc2nccnc2OCc2ccccn2)cc1)c1nc2ccccc2[nH]1 [drawing 849]
27 | 2120 | O=C(c1ccc(Oc2nccnc2Oc2ccccc2)cc1)c1nc2ccccc2[nH]1 [drawing 850]
28 | 51.5 | O=C(c1ccc(Oc2nccnc2Oc2cccnc2)cc1)c1nc2ccccc2[nH]1 [drawing 851]
29 | 673 | CC#CCOc1nccnc1Oc1ccc(C(=O)c2nc3ccccc3[nH]2)cc1 [drawing 852]
30 | 1.86 | Cc1ncsc1CCOc1nccnc1Oc1ccc(C(=O)c2nc3ccccc3[nH]2)cc1 [drawing 853]
31 | 5.56 | O=C(c1ccc(Oc2nccnc2OCC2CCOC2)cc1)c1nc2ccccc2[nH]1 (centres unmarked) [drawing 854]
32 | 89.5 | O=C(c1ccc(Oc2nccnc2OCCN2CCOCC2)cc1)c1nc2ccccc2[nH]1 [drawing 855]
33 | 541 | O=C(c1ccc(Oc2nccnc2OCCN2CCCC2)cc1)c1nc2ccccc2[nH]1 [drawing 856]
34 | 486 | CN(C)CCOc1nccnc1Oc1ccc(C(=O)c2nc3ccccc3[nH]2)cc1 [drawing 857]
35 | 235 | CN1CCCC1CCOc1nccnc1Oc1ccc(C(=O)c2nc3ccccc3[nH]2)cc1 (centres unmarked) [drawing 858]
36 | 14 | O=C(c1ccc(Oc2nccnc2OCc2ccncc2)cc1)c1nc2ccccc2[nH]1 [drawing 859]
37 | 8.05 | O=C(c1ccc(Oc2nccnc2OCCc2ccccn2)cc1)c1nc2ccccc2[nH]1 [drawing 860]
38 | 10.9 | O=C(c1ccc(Oc2nccnc2OCCCc2cccnc2)cc1)c1nc2ccccc2[nH]1 [drawing 861]
39 | 14.2 | O=C(c1ccc(Oc2nccnc2C2=CCC(F)(F)CC2)cc1)c1nc2ccccc2[nH]1 [drawing 862]
40 | 0.101 | c1ccc2[nH]c(Nc3ccc(Oc4nccnc4C4CCOCC4)cc3)nc2c1 [drawing 863]
41 | 0.606 | c1ccc2sc(Nc3ccc(Oc4nccnc4C4CCOCC4)cc3)nc2c1 [drawing 864]
42 | 0.321 | COc1ncccc1-c1nccnc1Oc1ccc(C(=O)c2nc3ccccc3[nH]2)cc1 [drawing 866]

Row | IC50 [nM] | SMILES
43 | 4.46 | N#CC1(c2nccnc2Oc2ccc(Nc3nc4ccccc4s3)cc2)CCOCC1 [drawing 867]
44 | 2.5 | N#CC1(c2nccnc2Oc2ccc(C(=O)c3nc4ccccc4[nH]3)cc2)CCOCC1 [drawing 868]
45 | 245 | COC(=O)C1(c2nccnc2Oc2ccc(Nc3nc4ccccc4s3)cc2)CCN(C(=O)OC(C)(C)C)CC1 [drawing 869]
46 | 11.8 | CN(c1ccc(Oc2nccnc2C2CCOCC2)cc1)c1nc2ccccc2s1 [drawing 870]
47 | 6.28 | COC(=O)C1(c2nccnc2Oc2ccc(Nc3nc4ccccc4s3)cc2)CCOCC1 [drawing 871]
48 | 0.661 | Fc1ccc2nc(Nc3ccc(Oc4nccnc4C4CCOCC4)cc3)sc2c1 [drawing 872]
49 | 1.31 | Cn1c(C(=O)c2ccc(Oc3nccnc3C3CCOCC3)cc2)nc2ccccc21 [drawing 874]
50 | 251 | CC(C)(C)OC(=O)N1CCC(CO)(c2nccnc2Oc2ccc(Nc3nc4ccccc4s3)cc2)CC1 [drawing 875]
51 | 14.2 | COc1ccc(-c2nccnc2Oc2ccc(C(=O)c3nc4ccccc4[nH]3)cc2)cn1 [drawing 876]
52 | 2.64 | Fc1cc(Oc2nccnc2C2CCOCC2)ccc1Nc1nc2ccccc2s1 [drawing 877]
53 | 777 | Fc1cc(Oc2cnccn2)ccc1Nc1nc2ccccc2s1 [drawing 878]
54 | 31.7 | O=C(c1ccc(Oc2nccnc2C2=CCOCC2)cc1)c1nc2ncccc2[nH]1 [drawing 879]
55 | 803 | Fc1cccc2nc(Nc3ccc(Oc4cnccn4)cc3)sc12 [drawing 880]
56 | 11.8 | Fc1ccc2sc(Nc3ccc(Oc4nccnc4C4CCOCC4)cc3)nc2c1 [drawing 881]
57 | 12500 | Fc1ccc2sc(Nc3ccc(Oc4cnccn4)cc3)nc2c1 [drawing 882]
58 | 7.56 | COc1cc(-c2nccnc2Oc2ccc(C(=O)c3nc4ccccc4[nH]3)cc2)ccn1 [drawing 883]
59 | 3.67 | COc1ncccc1-c1nccnc1Oc1ccc(Nc2nc3ccccc3s2)cc1 [drawing 886]
60 | 0.182 | CC(=O)N1CCC(c2nccnc2Oc2ccc(C(=O)c3nc4ccccc4[nH]3)cc2)CC1 [drawing 889]
61 | 7.72 | O=C(c1ccc(Oc2nccnc2C2CCOCC2)cc1)c1nc2ncccc2[nH]1 [drawing 890]
62 | 0.059 | CC(=O)N1CCC(c2nccnc2Oc2ccc(Nc3nc4ccccc4s3)cc2)CC1 [drawing 893]
63 | 1.57 | O[C@H]1CCC[C@H](c2nccnc2Oc2ccc(Nc3nc4ccccc4s3)cc2)C1 [drawing 894]

Row | IC50 [nM] | SMILES
64 | 0.594 | COc1ncccc1-c1nccnc1Oc1ccc(C(=O)c2nc3ccccc3n2C)cc1 [drawing 896]
65 | 1.36 | O=C(c1ccc(Oc2nccnc2[C@H]2CC[C@@H](O)CC2)cc1)c1nc2ccccc2[nH]1 [drawing 900]
66 | 0.902 | OC1(c2nccnc2Oc2ccc(Nc3nc4ccccc4s3)cc2)CCOCC1 [drawing 902]
67 | 1.33 | O[C@H]1CCC[C@@H](c2nccnc2Oc2ccc(Nc3nc4ccccc4s3)cc2)C1 [drawing 903]
68 | 38.8 | O=C(c1ccc(Oc2nccnc2OCc2cccnc2)cc1)c1nc2ccccc2[nH]1 [drawing 904]
69 | 25.2 | CCCOc1nccnc1Oc1ccc(C(=O)c2nc3ccccc3[nH]2)cc1 [drawing 905]
70 | 1.16 | O=C(c1ccc(Oc2nccnc2[C@@H]2CCC[C@H](O)C2)cc1)c1nc2ccccc2[nH]1 [drawing 907]
71 | 2.16 | O=C(c1ccc(Oc2nccnc2C2(O)CCOCC2)cc1)c1nc2ccccc2[nH]1 [drawing 908]
72 | 0.961 | O=C(c1ccc(Oc2nccnc2[C@H]2CCC[C@@H](O)C2)cc1)c1nc2ccccc2[nH]1 [drawing 909]
73 | 2.22 | O[C@@H]1CCC[C@H](c2nccnc2Oc2ccc(Nc3nc4ccccc4s3)cc2)C1 [drawing 910]
74 | 0.199 | O=C1CCC(c2nccnc2Oc2ccc(C(=O)c3nc4ccccc4[nH]3)cc2)CC1 [drawing 911]
75 | 2.54 | O[C@@H]1CCC[C@@H](c2nccnc2Oc2ccc(Nc3nc4ccccc4s3)cc2)C1 [drawing 912]
76 | 1.34 | O[C@H]1CCC[C@H](c2nccnc2Oc2ccc(Nc3nc4ccccc4s3)cc2)C1 [drawing 913]
77 | 1.12 | O=C(c1ccc(Oc2nccnc2[C@H]2CCC[C@H](O)C2)cc1)c1nc2ccccc2[nH]1 [drawing 915]
78 | 166 | CC1(C)C=C(c2nccnc2Oc2ccc(C(=O)c3nc4ccccc4[nH]3)cc2)C(=O)CC1 [drawing 916]
79 | 5.42 | COc1cncc(-c2nccnc2Oc2ccc(C(=O)c3nc4ccccc4[nH]3)cc2)c1 [drawing 917]
80 | 12.2 | COc1cncc(-c2nccnc2Oc2ccc(Nc3nc4ccccc4s3)cc2)c1 [drawing 918]
81 | 1.86 | CN1CCC(c2nccnc2Oc2ccc(C(=O)c3nc4ccccc4[nH]3)cc2)=CC1=O [drawing 921]
82 | 0.748 | C[C@]1(O)CC[C@H](c2nccnc2Oc2ccc(C(=O)c3nc4ccccc4[nH]3)cc2)CC1 [drawing 922]
83 | 1.42 | C[C@]1(O)CC[C@@H](c2nccnc2Oc2ccc(C(=O)c3nc4ccccc4[nH]3)cc2)CC1 [drawing 923]
